In patent publication US20260159512A1, “BCAT2 INHIBITORS” (AGIOS PHARMACEUTICALS, INC., priority 2021, published 2026):
pIC50: −log10 of the molar value.

Assays:
[1] = molecular target: T1, BCAT2 (Homo sapiens, UniProt O15382); assay: BCAT2 in vitro enzyme inhibition assay (resazurin/diaphorase-coupled fluorescence); format: biochemical; conditions: average where tested multiple times
T1 sequence (O15382 28-392): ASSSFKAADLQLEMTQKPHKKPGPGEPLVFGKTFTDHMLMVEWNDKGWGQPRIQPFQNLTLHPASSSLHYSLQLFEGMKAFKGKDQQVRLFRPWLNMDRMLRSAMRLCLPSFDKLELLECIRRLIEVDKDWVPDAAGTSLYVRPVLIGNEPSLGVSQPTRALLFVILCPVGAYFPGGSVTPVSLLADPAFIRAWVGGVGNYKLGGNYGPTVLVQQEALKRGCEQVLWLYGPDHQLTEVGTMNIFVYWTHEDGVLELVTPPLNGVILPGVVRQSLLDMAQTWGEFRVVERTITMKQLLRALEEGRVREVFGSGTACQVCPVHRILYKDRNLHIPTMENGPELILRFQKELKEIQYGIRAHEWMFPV
Procedure, shortened: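 Coupled fluorescence readout: glutamate formed from L-leucine/α-ketoglutarate transamination drives GDH/NAD/diaphorase reduction of resazurin (Ex 540/Em 590). Human BCAT2 was first exposed 1 h at room temperature to compound, top final 100 μM in 3-fold, 10-point series; substrate reaction ran 1 h before SDS quench, in technical duplicate with DMSO max and enzyme-free min controls.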

[2] = molecular target: T2, hBCAT1 (Homo sapiens, UniProt P54687); assay: BCAT1 in vitro enzyme inhibition assay (resazurin/diaphorase-coupled fluorescence); format: biochemical; conditions: average where tested multiple times
T2 sequence (P54687 1-386): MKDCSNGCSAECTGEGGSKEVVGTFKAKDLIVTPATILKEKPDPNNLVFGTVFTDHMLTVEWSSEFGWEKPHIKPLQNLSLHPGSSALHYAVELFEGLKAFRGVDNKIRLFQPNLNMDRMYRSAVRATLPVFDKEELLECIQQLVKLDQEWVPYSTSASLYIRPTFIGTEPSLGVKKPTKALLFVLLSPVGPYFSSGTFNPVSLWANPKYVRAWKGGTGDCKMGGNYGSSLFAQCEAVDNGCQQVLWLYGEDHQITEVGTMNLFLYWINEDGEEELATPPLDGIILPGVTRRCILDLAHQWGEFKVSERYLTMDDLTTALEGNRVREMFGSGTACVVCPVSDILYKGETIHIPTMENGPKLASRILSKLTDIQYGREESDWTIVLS
Description: BCAT1 In Vitro Enzyme Inhibition Assay
Meanwhile the Substrate Mix was prepared.
Test Compound Preparation:
Test compounds were prepared at 50× final concentration in DMSO, 1 to 3 dilutions were made for 10 points. The compounds were added to the assay as a 1 to 50 dilution (1 μL in 50 μL) to yield a top assay final concentration of 100 μM, decreasing 3-fold for 10 points. […] All tests were performed in technical duplicate.
Where a compound was tested multiple times, the average value of the tests is reported.

Row | Compound | pIC50 [1] | pIC50 [2]
1 | O=C(N[C@H]1CCC[C@@H](n2c(-n3cccn3)nc3cnc(-n4ccnn4)cc32)C1)c1ncc(C(F)F)s1 [Example 57, N-((1S,3R)-3-(2-(1H-pyrazol-1-yl)-6-(1H-1,2,3-triazol-1-yl)-1H-imidazo[4,5-c]pyridin-1-yl)cyclohexyl)-5-(difluoromethyl)thiazole-2-carboxamide] | 6.00 to 6.30 | < 5.30
2 | CC(C)(O)c1cnn(-c2cc3c(cn2)nc(-c2ccccn2)n3[C@@H]2CCC[C@H](NC(=O)c3ncc(C(F)F)s3)C2)n1 [Example 70, 5-(difluoromethyl)-N-((1S,3R)-3-(6-(4-(2-hydroxypropan-2-yl)-2H-1,2,3-triazol-2-yl)-2-(pyridin-2-yl)-1H-imidazo[4,5-c]pyridin-1-yl)cyclohexyl)thiazole-2-carboxamide] | ≥ 7.00 | < 5.30
3 | CC(C)(O)c1nc2cnc(-n3cncn3)cc2n1[C@@H]1CCC[C@H](NC(=O)c2ccc(Br)s2)C1 [Example 92, 5-bromo-N-((1S,3R)-3-(2-(2-hydroxypropan-2-yl)-6-(1H-1,2,4-triazol-1-yl)-1H-imidazo[4,5-c]pyridin-1-yl)cyclohexyl)thiophene-2-carboxamide] | < 6.00 | < 5.30
4 | O=C(NC1CCC(n2c(-c3ccccn3)nc3cnc(-n4nccn4)cc32)C1)c1ccc(Br)s1 (centres unmarked) [Example 93, 5-bromo-N-(3-(2-(pyridin-2-yl)-6-(2H-1,2,3-triazol-2-yl)-1H-imidazo[4,5-c]pyridin-1-yl)cyclopentyl)thiophene-2-carboxamide] | 6.30 to 7.00 | < 5.30
5 | O=C(NC1CCC(n2c(-c3ccccn3)nc3cnc(-n4ccnn4)cc32)C1)c1ccc(Br)s1 (centres unmarked) [Example 94, 5-bromo-N-(3-(2-(pyridin-2-yl)-6-(1H-1,2,3-triazol-1-yl)-1H-imidazo[4,5-c]pyridin-1-yl)cyclopentyl)thiophene-2-carboxamide] | < 6.00 | < 5.30
6 | O=C(N[C@H]1CCC[C@@H](n2c(-c3ccccn3)nc3cc(-n4cncn4)ncc32)C1)c1ccc(Br)s1 [Example 150, 5-bromo-N-((1S,3R)-3-(2-(pyridin-2-yl)-6-(1H-1,2,4-triazol-1-yl)-3H-imidazo[4,5-c]pyridin-3-yl)cyclohexyl)thiophene-2-carboxamide] | 6.00 to 6.30 | < 5.30
7 | O=C(N[C@H]1CCC[C@@H](n2c(-c3ccccn3)nc3cc(-n4nccn4)ncc32)C1)c1ccc(Br)s1 [Example 151, 5-bromo-N-((1S,3R)-3-(2-(pyridin-2-yl)-6-(2H-1,2,3-triazol-2-yl)-3H-imidazo[4,5-c]pyridin-3-yl)cyclohexyl)thiophene-2-carboxamide] | ≥ 7.00 | < 5.30
8 | C#Cc1ccc(C(=O)N[C@H]2CCC[C@@H](n3c(-c4ccccn4)nc4cc(-c5cnco5)ncc43)C2)s1 [Example 153, 5-ethynyl-N-((1S,3R)-3-(6-(oxazol-5-yl)-2-(pyridin-2-yl)-3H-imidazo[4,5-c]pyridin-3-yl)cyclohexyl)thiophene-2-carboxamide] | 6.30 to 7.00 | < 5.30
9 | O=C(N[C@H]1CCC[C@@H](n2c(-c3ccccn3)nc3cc(-c4cnco4)ncc32)C1)c1ccc(Br)s1 [Example 154, 5-bromo-N-((1S,3R)-3-(6-(oxazol-5-yl)-2-(pyridin-2-yl)-3H-imidazo[4,5-c]pyridin-3-yl)cyclohexyl)thiophene-2-carboxamide] | 6.00 to 6.30 | < 5.30
10 | O=C(NC1CCCC(n2c(-c3ccccn3)nc3cc(-c4ncon4)ncc32)C1)c1ccc(Br)s1 (centres unmarked) [Example 155, N-(3-(6-(1,2,4-oxadiazol-3-yl)-2-(pyridin-2-yl)-3H-imidazo[4,5-c]pyridin-3-yl)cyclohexyl)-5-bromothiophene-2-carboxamide] | ≥ 7.00 | 5.30 to 6.00
11 | Cn1cc(-c2cc3nc(-c4ccccn4)n(C4CCCC(NC(=O)c5ccc(Br)s5)C4)c3cn2)cn1 (centres unmarked) [Example 156, 5-bromo-N-(3-(6-(1-methyl-1H-pyrazol-4-yl)-2-(pyridin-2-yl)-3H-imidazo[4,5-c]pyridin-3-yl)cyclohexyl)thiophene-2-carboxamide] | < 6.00 | < 5.30
12 | O=C(NC1CCCC(n2c(-c3ccccn3)nc3cc(-c4nnco4)ncc32)C1)c1ccc(Br)s1 (centres unmarked) [Example 157, N-(3-(6-(1,3,4-oxadiazol-2-yl)-2-(pyridin-2-yl)-3H-imidazo[4,5-c]pyridin-3-yl)cyclohexyl)-5-bromothiophene-2-carboxamide] | ≥ 7.00 | 5.30 to 6.00
13 | C[C@@H]1CCCN1c1cc2c(cn1)nc(-c1ccccc1F)n2[C@@H]1CCC[C@H](NC(=O)c2ncc(Cl)s2)C1 [Example 195, 5-chloro-N-((1S,3R)-3-(2-(2-fluorophenyl)-6-((R)-2-methylpyrrolidin-1-yl)-1H-imidazo[4,5-c]pyridin-1-yl)cyclohexyl)thiazole-2-carboxamide] | 6.30 to 7.00 | 5.30 to 6.00
14 | CC(C)Cc1nc2cnc(-c3ccccc3F)cc2n1[C@@H]1CCC[C@H](NC(=O)c2ncc(Cl)s2)C1 [Example 206, 5-chloro-N-((1S,3R)-3-(6-(2-fluorophenyl)-2-isobutyl-1H-imidazo[4,5-c]pyridin-1-yl)cyclohexyl)thiazole-2-carboxamide] | 6.30 to 7.00 | < 5.30
15 | O=C(N[C@H]1CCC[C@@H](n2c(-c3ccccc3F)nc3cnc(-c4c(F)cccc4F)cc32)C1)c1ncc(Cl)s1 [Example 207, 5-chloro-N-((1S,3R)-3-(6-(2,6-difluorophenyl)-2-(2-fluorophenyl)-1H-imidazo[4,5-c]pyridin-1-yl)cyclohexyl)thiazole-2-carboxamide] | 6.30 to 7.00 | < 5.30
16 | Cn1ccc(Oc2cc3c(cn2)nc(-c2ncccc2F)n3[C@@H]2CCC[C@H](NC(=O)c3ncc(C(F)F)s3)C2)n1 [Example 268, 5-(difluoromethyl)-N-((1S,3R)-3-(2-(3-fluoropyridin-2-yl)-6-((1-methyl-1H-pyrazol-3-yl)oxy)-1H-imidazo[4,5-c]pyridin-1-yl)cyclohexyl)thiazole-2-carboxamide] | 6.00 to 6.30 | < 5.30
17 | CC(=O)N1CC(NC(=O)c2ccc(Br)s2)CC(n2c(-c3ccccn3)nc3cc(-c4nnco4)ccc32)C1 (centres unmarked) [Example 282, N-(5-(5-(1,3,4-oxadiazol-2-yl)-2-(pyridin-2-yl)-1H-benzo[d]imidazol-1-yl)-1-acetylpiperidin-3-yl)-5-bromothiophene-2-carboxamide] | 6.30 to 7.00 | < 5.30
18 | CC(=O)N1CC(NC(=O)c2ccc(Br)s2)CC(n2c(-c3ccccn3)nc3cc(-c4ncon4)ccc32)C1 (centres unmarked) [Example 284, N-(5-(5-(1,2,4-oxadiazol-3-yl)-2-(pyridin-2-yl)-1H-benzo[d]imidazol-1-yl)-1-acetylpiperidin-3-yl)-5-bromothiophene-2-carboxamide] | ≥ 7.00 | 5.30 to 6.00
19 | CC(=O)N1CC(NC(=O)c2ccc(Br)s2)CC(n2c(-c3ccccn3)nc3ccc(C#N)cc32)C1 (centres unmarked) [Example 289, N-(1-acetyl-5-(6-cyano-2-(pyridin-2-yl)-1H-benzo[d]imidazol-1-yl)piperidin-3-yl)-5-bromothiophene-2-carboxamide] | 6.30 to 7.00 | < 5.30
20 | CNC(=O)c1cc2nc(-c3ccccn3)n(C3CC(NC(=O)c4ccc(Br)s4)CN(C)C3)c2cc1OC (centres unmarked) [Example 290, 1-(5-(5-bromothiophene-2-carboxamido)-1-methylpiperidin-3-yl)-6-methoxy-N-methyl-2-(pyridin-2-yl)-1H-benzo[d]imidazole-5-carboxamide] | ≥ 7.00 | < 5.30
21 | C#Cc1ccc(C(=O)NC2CC(n3c(-c4ccccc4F)nc4cc(C(=O)NC)c(OC)cc43)CN(C)C2)s1 (centres unmarked) [Example 292, 1-(5-(5-ethynylthiophene-2-carboxamido)-1-methylpiperidin-3-yl)-2-(2-fluorophenyl)-6-methoxy-N-methyl-1H-benzo[d]imidazole-5-carboxamide] | ≥ 7.00 | 5.30 to 6.00
22 | CNC(=O)c1ccc2c(c1)nc(-c1ccccn1)n2C1CC(NC(=O)c2ccc(Br)s2)CN(C(N)=O)C1 (centres unmarked) [Example 293, 1-(5-(5-bromothiophene-2-carboxamido)-1-carbamoylpiperidin-3-yl)-N-methyl-2-(pyridin-2-yl)-1H-benzo[d]imidazole-5-carboxamide] | ≥ 7.00 | 5.30 to 6.00
